These are literature values, as cited in patent US20240091240A1, “TREATMENTS FOR BLOOD-BRAIN BARRIER DYSFUNCTION AND RECURRENT SEIZURES USING NOX/LOX/COX INHIBITORS” (University of Kentucky Research Foundation, priority 2022, published 2024).

The test system of the data set is subjects suffering from seizures. Particulars: dosage of 5 mg/kg and 10 mg/kg.

Turning to `CC1(C)Cc2c(-c3ccccc3)c(-c3ccc(Cl)cc3)c(CC(=O)O)n2C1` [licofelone], the brain capillary leakage result was “reduce brain capillary leakage”.
